This is an account of results in patent US4465692A (Nelson Research & Development Company, priority 1982, dated 1984).

One experiment concerns the target D-1 receptor. Nature of the experiment: D-1 receptor in carp retina (in vitro). Conditions: concentration of agonist required to inhibit the biochemical response by 50%, read-out: Fish retina D-1 receptor IC50.
A further experiment has as its target D-2 receptor (Rattus norvegicus, UniProt P61169).

Chain of D-2 receptor (P61169 whole entry): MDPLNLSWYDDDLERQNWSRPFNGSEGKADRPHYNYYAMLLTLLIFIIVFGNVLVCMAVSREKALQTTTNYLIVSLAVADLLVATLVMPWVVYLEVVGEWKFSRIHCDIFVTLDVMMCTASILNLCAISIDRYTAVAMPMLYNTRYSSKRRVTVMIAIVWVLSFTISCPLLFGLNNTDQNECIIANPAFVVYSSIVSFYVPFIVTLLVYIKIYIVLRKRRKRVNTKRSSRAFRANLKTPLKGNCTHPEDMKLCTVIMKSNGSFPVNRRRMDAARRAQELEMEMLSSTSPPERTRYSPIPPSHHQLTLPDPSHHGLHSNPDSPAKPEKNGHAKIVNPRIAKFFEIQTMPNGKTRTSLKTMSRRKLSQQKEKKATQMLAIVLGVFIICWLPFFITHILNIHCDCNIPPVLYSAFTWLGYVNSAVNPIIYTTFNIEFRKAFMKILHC

In the case of `CN1CCc2cccc3c2[C@H]1Cc1ccc(O)c(O)c1-3` [Apomorphine, reference compound], the IC50 at D-1 receptor was 1500 nM.
As for `CCCN(CCc1ccccc1)C1CCc2c(O)cccc2C1` (stereo not shown) [PPHT, 2-(N-phenylethyl-N-propylamino)-5-hydroxytetralin], the half-inhibitory concentration (IC50) at D-1 receptor is 3700 nM. Further, the “times more potent than apomorphine at the D-2 receptor” value at D-2 receptor (relative to apomorphine) was “approximately 40 times”. At D-2 receptor (relative to dopamine), the “times more potent than dopamine at the D-2 receptor” value amounted to 250 times.
